Experimental data: US20240041042A1, “1-(PYRIDYL)-5-AZINYLPYRAZOLE DERIVATIVES, AND THEIR USE FOR CONTROL OF UNDESIRED PLANT GROWTH” (Bayer Aktiengesellschaft, priority 2020, published 2024)
Read-outs that look alike come from different tables or passages of the source.

Tests used:
Assay type in all cases: in vivo
Viola tricolor (VIOTR) [1] = assay: Pre-emergence herbicidal action against VIOTR
Outline: (§1)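 Dosages of 320 g/ha or less; pre-emergence; WP or EC in aqueous spray, 0.5% additive, 600 l/ha; greenhouse; visual % effect after ~3 wk relative to control pots.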

[2] = system: Amaranthus retroflexus (AMARE); assay: Post-emergence herbicidal action against AMARE
Outline: (§2)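 Post-emergence greenhouse spray, one-leaf stage, 600 l/ha water plus 0.5% additive; WP or EC formulations; application rates 320 g/ha or lower. Visual % damage vs untreated controls at ~3 weeks.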

[3] = system: Polygonum convolvulus (POLCO); assay: Pre-emergence herbicidal action against POLCO; conditions: dosage 320 g/ha
Outline: as §1

[4] = system: Matricaria inodora (MATIN); assay: Pre-emergence herbicidal action against MATIN
Outline: as §1

[5] = system: Verconica persica (VERPE); assay: Post-emergence herbicidal action against VERPE; conditions: 320 g/ha, VERPE
Outline: as §2

Viola tricolor (VIOTR) [6] = assay: Post-emergence herbicidal action against VIOTR
Outline: as §2

[7] = system: Pharbitis purpurea (PHBPU); assay: Pre-emergence herbicidal action against PHBPU; conditions: dosage 320 g/ha
Outline: as §1

Setaria viridis (SETVI) [8] = assay: Post-emergence herbicidal action against SETVI; conditions: dosage 320 g/ha
Outline: as §2

[9] = system: Echinochloa crus-galli (ECHCG); assay: Pre-emergence herbicidal action against ECHCG
Outline: as §1

Setaria viridis (SETVI) [10] = assay: Pre-emergence herbicidal action against SETVI
Outline: as §1

[11] = system: Pharbitis purpurea (PHBPU); assay: Post-emergence herbicidal action against PHBPU; conditions: dosage 320 g/ha
Outline: as §2

[12] = system: Amaranthus retroflexus (AMARE); assay: Pre-emergence herbicidal action against AMARE; conditions: visual scoring after about 3 weeks vs untreated controls
Outline: as §1

[13] = system: Abutilon theophrasti (ABUTH); assay: Post-emergence herbicidal action against ABUTH; conditions: visual rating about 3 weeks after treatment vs untreated controls (100% = plants have died, 0% = like control plants)
Outline: as §2

[14] = system: Polygonum convolvulus (POLCO); assay: Post-emergence herbicidal action against POLCO; conditions: dosage 320 g/ha
Outline: as §2

[15] = system: Alopecurus myosuroides (ALOMY); assay: Pre-emergence herbicidal action against ALOMY; conditions: scored visually after about 3 weeks, 100% = plants have died
Outline: as §1

[16] = system: Triticum aestivum (TRZAS); conditions: crop plant compatibility, 80 g/ha, effect vs untreated controls
Outline: (§3)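 One-leaf-stage crops (2–3 wk post-sowing, sandy loam, greenhouse) sprayed on green parts; 0.5% additive, 600 l/ha water. Rated by eye ~3 wk later, % vs untreated; suffixes a/b/c mark different dosages.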

Oryza sativa (ORYSA) = conditions: crop plant compatibility, 80 g/ha, effect in comparison to untreated controls
Outline: as §3

Zea mays (ZEAMX) [17] = conditions: pre-emergence, 80 g/ha, crop plant compatibility, in comparison to untreated controls
Source text: Seeds of monocotyledonous and dicotyledonous weed plants and crop plants are placed in plastic or organic planting pots and covered with soil. The compounds of the invention, formulated in the form of wettable powders (WP) or as emulsion concentrates (EC), are then applied to the surface of the covering soil as aqueous suspension or emulsion with addition of 0.5% additive at a water application rate equivalent to 600 l/ha. After the treatment, the pots are placed in a greenhouse and kept under good growth conditions for the trial plants. After about 3 weeks, the effect of the preparations is scored visually in comparison with untreated controls as percentages. For example, 100% activity=the plants have died, 0% activity=like control plants.
The observed effects on selected crop plants are reported here in comparison to the untreated controls (values in %). The appendices “a” “b” and “c” give differentiation by dosage used with otherwise the same crop plants tested.

[18] = system: Echinochloa crus-galli (ECHCG); assay: Post-emergence herbicidal action against ECHCG
Outline: as §2

[19] = system: Verconica persica (VERPE); assay: Pre-emergence herbicidal action against VERPE
Outline: as §1

[20] = system: Alopecurus myosuroides (ALOMY); assay: Post-emergence herbicidal action against ALOMY; conditions: 320 g/ha, visual rating about 3 weeks after treatment vs untreated controls (100% = plants have died, 0% = like control plants)
Outline: as §2

Avena fatua (AVEFA) [21] = assay: Post-emergence herbicidal action against AVEFA; conditions: 320 g/ha, visual rating about 3 weeks after treatment
Outline: as §2

Lolium rigidum (LOLRI) [22] = assay: Pre-emergence herbicidal action against LOLRI; conditions: dosage 320 g/ha
Outline: as §1

Lolium rigidum (LOLRI) [23] = assay: Post-emergence herbicidal action against LOLRI; conditions: dosage 320 g/ha
Outline: as §2

[24] = system: Matricaria inodora (MATIN); assay: Post-emergence herbicidal action against MATIN; conditions: dosage 320 g/ha
Outline: as §2

Avena fatua (AVEFA) [25] = assay: Pre-emergence herbicidal action against AVEFA; conditions: 320 g/ha, visual scoring after about 3 weeks vs untreated controls
Outline: as §1

Zea mays (ZEAMX) [26] = conditions: crop plant compatibility, effect vs untreated controls
Outline: as §3

[27] = 320 g/ha, visual rating about 3 weeks after treatment

SMILES	Pre-emergence action against VIOTR in % (Viola tricolor (VIOTR) [1]; 320 g/ha, Viola tricolor)	Post-emergence action against AMARE in % [2, 27]	Pre-emergence action against POLCO in % [3]	Pre-emergence action against MATIN in % ([4]; dosage 320 g/ha)	Post-emergence action against VERPE in % [5]	Post-emergence action against VIOTR in % (Viola tricolor (VIOTR) [6]; 80 g/ha)	Post-emergence action against VIOTR in % (Viola tricolor (VIOTR) [6]; 320 g/ha)	Pre-emergence action against PHBPU in % [7]	Pre-emergence action against ECHCG in % ([9]; dosage 320 g/ha)	Pre-emergence action against SETVI in % (Setaria viridis (SETVI) [10]; dosage 320 g/ha)	Post-emergence action against PHBPU in % [11]	Pre-emergence action against AMARE in % ([12]; 320 g/ha)	Post-emergence action against ABUTH in % ([13]; 320 g/ha)	Post-emergence action against POLCO in % [14]	Pre-emergence action against ALOMY ([15]; 320 g/ha)	Post-emergence action against ORYSA in % (Oryza sativa (ORYSA))	Pre-emergence action against ZEAMX in % (Zea mays (ZEAMX) [17])	Post-emergence action against ECHCG in % ([18]; dosage 80 g/ha)	Post-emergence action against ECHCG in % ([18]; dosage 320 g/ha)	Pre-emergence action against VERPE in % ([19]; dosage 320 g/ha)	other results
CCOC(=O)COc1nn(-c2ncccc2C(F)(F)F)c(-c2cncc(F)c2)c1Br [Example I-202]	100%	80%	90%	80%	80%	80%	80%	90%	90%	90%	90%	90%	80%	80%	80%	20%	20%	80%	90%	90%	Pre-emergence action against VIOTR in % (Viola tricolor (VIOTR) [1]; dosage 80 g/ha): 90%; Post-emergence action against SETVI in % (Setaria viridis (SETVI) [8]): 80%; Post-emergence action against TRZAS in % [16]: 20%; Pre-emergence action against VERPE in % ([19]; dosage 80 g/ha): 80%
O=C(O)COc1nn(-c2nc(F)ccc2F)c(-c2ccc(F)nc2)c1Br [Example I-334]	90%	80%	90%	100%	80%	80%	80%	90%	90%	90%	80%	100%	80%	80%	90%	20%	20%	80%	90%	80%	Post-emergence action against AMARE in % ([2]; 80 g/ha, visual rating about 3 weeks after treatment vs untreated controls (100% = plants have died, 0% = like control plants)): 80%; Post-emergence action against ALOMY in % [20]: 90%; Pre-emergence action against MATIN in % ([4]; dosage 80 g/ha): 80%; Post-emergence action against AVEFA in % (Avena fatua (AVEFA) [21]): 80%; Pre-emergence action against ECHCG in % ([9]; dosage 80 g/ha): 80%; Pre-emergence action against LOLRI in % (Lolium rigidum (LOLRI) [22]): 90%; Post-emergence action against LOLRI in % (Lolium rigidum (LOLRI) [23]): 90%; Post-emergence action against MATIN in % [24]: 80%; Pre-emergence action against SETVI in % (Setaria viridis (SETVI) [10]; dosage 80 g/ha): 90%; Pre-emergence action against AMARE in % ([12]; 80 g/ha): 90%; Post-emergence action against ABUTH in % ([13]; 80 g/ha): 80%; Pre-emergence action against AVEFA in % (Avena fatua (AVEFA) [25]): 90%; Pre-emergence action against ALOMY ([15]; 80 g/ha): 80%; Post-emergence action against ZEAMX in % (Zea mays (ZEAMX) [26]; 80 g/ha): 10%; Post-emergence action against ZEAMX in % (Zea mays (ZEAMX) [26]; 320 g/ha): 20%
